# Reference: patent EP1228058B1, “BENZOPYRANYL GUANIDINE DERIVATIVES, PROCESS FOR PREPARATION THEREOF, AND PHARMACEUTICAL COMPOSITIONS CONTAINING THEM” (Dongbu Hannong Chemical Co., Ltd., priority 1999, dated 2001)
# Columns and labels:
# rat aorta = experiment: Vasodilation effects on isolated blood vessels of rats (methoxamine-constricted aortic rings); assay type: cell-based; details: isolated rat aorta constricted with methoxamine (3 uM); read-out: Vasodilation Activity (in Vitro, rat aorta) (IC50)
# Excerpt: Male Sprague-Dawly rats (350-450 g, obtained from the Experimental Animal Team of the Korea Research Institute of Chemical Technology) were knocked unconscious by hitting the occipital region, sacrificed by cervical dislocation, and underwent thoracotomy. After being quickly removed, the thoracic aorta was deprived of the adipose tissue and cut into aortic rings of 3 mm width. The aorta was lightly rubbed with a modified Krebs Henseleit buffer (Physiological Salt Solution, PSS) soaked cotton club to remove the inner epithelial layer therefrom. While being suspended in an organ bath containing a physiological buffer, the vascular tissue was allowed to equilibrate under a resting tension of 2 g and then, stand for 1 hour at 37 °C for stabilization with a supply of a carbogen consisting of 95% O2-5% CO2.
# Thereafter, the vascular tissue was constricted with 10^-5 M phenylephrine and washed several times with PSS and this procedure was repeated again to ensure the stable reacivity of vascular smooth muscle to repetitive constriction/dilatation.
# In addition, 3x10^-6 M methoxamine was used to induce an intensive constriction in the vascular smooth muscle. When the vasoconstriction induced by the methoxamine reached and maintained a maximum, test compounds and controls were cumulatively added to the organ baths in concentrations of 1, 3, 10 and 30 uM so as to induce vasodilatation. As for the controls, they were Cromakalim and BMS-180448 (the compounds of the chemical formula 2), both known to be the first generation KATP activator with potent vasodilatation and cardioprotection effects.
# Following the addition of the drugs, the change in the maximal constriction induced by methoxamine was calculated to plot a concentration-dilation response curve. Through a linear regression analysis, IC50, the drug concentration at which the vascular tissue is 50% dilated, was obtained for each drug.
# [1] = tested on: ischemic heart models of rats; experiment: Heart protective (anti-ischemic) activity in ischemic heart models of anesthetized rats; assay type: in vivo; details: 45 min occlusion, 90 min reperfusion
# Method: Male rats (350-450 g, obtained from the Experimental Animal Team of the Korea Research Institute of Chemical Technology) were anesthetized by the intraperitoneal injection of pentobarbital at a dose of 75 mg/kg. After trachetomy, the rats were rendered to respire artificially at a rate of 60/min with a stroke volume of 10 ml/kg. Cannulars were inserted into the fermoral vein and the fermoral artery and used for drug administration and blood pressure measurement, respectively.
# In the ischemic myocardium damage models, the body temperature has an important influence on the results. To avoid the change in the body temperature, a body temperature measuring probe was inserted into the rectum of each rat and the body temperature was constantly kept at 37 °C with the aid of a homeothermic blanket control unit.
# Afterwards, during testing, a continuous measurement was made of the mean arterial blood pressures and heart rates from the rats. For the measurement of the blood pressure, a pressure transducer, such as that manufactured by Grass Ins., MA, U.S.A., identified as Model Statham P23XL, was used. The heart rate was measured by a tachometer, such as that manufactured by Gould Inc., OH, U.S.A., identified as Biotachometer. In addition, all of the changes occurring were continuously recorded through the Gould 2000 chart recorder, manufactured by Gould Inc.
# The left coronary artery was occluded according to the Selye H. method as follows. The rats underwent a left thoracotomy operation for partial opening of the chest and the right-side chest was pressurized by the middle finger of the left hand to push the heart out. Immediately after the left anterior descending coronary artery hereinafter referred to as (LAD) was carefully stitched using a suture needle with 5-0 silk ligature, the heart was then repositioned in the thoracic cavity while both ends of the ligature were situated outside. The opposite ligature ends were passed through a PE tube (PE100, 2.5 cm) and allowed to stand loose for 20 min for stabilization. Via the cannula inserted into the femoral vein, vehicles or drugs were administered into the rats which were rendered to stand for 30 min in order to sufficiently elicit the efficacies of the drugs. BMS-180448 was used as a control drug and the i.v.administration dose was 0.3 mg/kg for all test drugs of interest and the control drug.
# Next, the PE tube which had the doubled strands of the ligature passed therethrough was pushed toward the heart and then, set upright by tightly pulling end regions of the ligature with a hemostatic pincette while pressing the coronary artery. The PE tube was allowed to stand for 45 min for the occlusion of the coronary artery, followed by the removal of the hemostatic pincette and then, by the reperfusion for 90 min.
# After the reocclusion of the coronary artery in accordance with the above procedure, the rats were administered with 2 ml of a 1% Evans blue through an intravenous route. Subsequently, an excess of pentobarbital was intravenously injected to kill the rats, after which the heart was removed and then, deprived of the right ventricle and both atria. The left ventricle was cut horizontally to the heart apex into 5 or 6 slices which were weighed. From the surface of each slice, images were input with the aid of a Hi-scope into a computer installed with an image analyzing program (Image Pro Plus). From the images input into the computer, the area of the normal blood stream tissue region which appeared blue in a computer monitor and the area which appeared colorless were measured. The percentage of the colorless area to the total area of each slice was calculated and multiplied by the weight of each slice to determine the area at risk (AAR) of each slice. […]
# [2] = Acute oral toxicity test in rats; details: rat, in vivo, single oral dose in 0.5% methyl cellulose, read-out: lethal dose (LD50) for oral administration
# Method: In this test six-week old SPF SD rats were used with two rats assigned to each group. The compounds of examples 1, 2, 3, 5, 7, 8, 9, 10, 13, 14, 15, 19, 22, 23, 24, 25, 26, 28, 29, 30, 31, 32, 33, 34, 35, 36, 37, 38, 39, 40, 41, 44, 46, 47, 48, 49, 51, 52, 57, 58, 60, 62, 64, 67, 68, 69, 71 and 72 were suspended in 0.5% methyl cellulose, respectively, and administered orally at a single dose of 1 g/kg using a ball-tipped needle. The dosing volume was 10 ml/kg. […] All survivors at the end of the observation period underwent laparotomy under ether anesthesia and the blood samples were taken from the abdominal aorta for hematological tests and biochemical analysis. After sacrificing the animals, autopsy was performed for macroscopic observation of the organs and tissues. Tissue samples of vital organs from macroscopic legion were removed and fixed in 10% neutral buffered formalin solution, then processed by standard procedures for histopathology and examined under light microscope. There were no significant changes in clinical symptoms, body weight and mortalities. Also in hematology, serum chemistry parameters and macroscopic observation, no drug-related changes were observed.
# A7r5 [3] = experiment: Inhibition of intracellular ROS induced by H2O2 (H2DCFDA) in A7r5; assay type: cell-based; details: Rattus norvegicus
# Method: (§1) Measurement of intracellular ROS (Reactive Oxygen Species) was determined using H2DCFDA (2',7'-dichlorodihydrofluorescein diacetate, Molecular Probes, Eugene, OR, USA). H2DCFDA is a non-polar compound that readily diffused into cells, where it is hydrolyzed by intracellular esterase to polar derivative H2DCF (2',7'-dichlorodihydrofluorescein) which can not cross the cell membrane, and thereby trapped within the cell. H2DCF is low-fluorescent, but converted to high-fluorescent DCF (2',7'-dichlorofluorescein) by intracellular ROS. Therefore, the intracellular ROS formation can be determined from the amount of converted DCF. HUVEC (Human umbilical Vascular Endothelial Cells) or A7r5 (Rat thoracic aorta smooth muscle cells) were used. HUVEC were cultured in Kaighn's F12K medium supplemented with 10% heat-inactivated FBS, 0.1 mg/ml heparin sodium, 0.03-0.05 mg/ml ECGS (Endothelial cell growth supplement) and 1% antibiotics, and A7r5 were cultured in DMEM supplemented with 10% heat inactivated FBS and 1% antibiotics. To measure the intracellular ROS, HUVEC or A7r5 were preincubated for 30 min in the presence of test compounds (10^-7-10^-5 M). Thereafter, cells were stimulated with H2O2 (10^-6 and 10^-5 M for 20 min), and then incubated in the dark for 2 hr at 37 °C in 50 mM phosphate buffer (pH 7.4) containing 5 uM H2DCFDA. The quantity of DCF fluorescence (485 nm excitation, 530 nm emission) was measured using Fluorescence plate reader (FL600, Biotek Instruments).
# [4] = tested on: angiogenesis induced by Angiotensin II in Sprague-Dawley rats; experiment: Suppression of Angiotensin II induced angiogenesis in implanted sponge (99mTc-DTPA clearance); assay type: in vivo; details: Control AII (100nmol) alone, no test drug
# Human LDL = experiment: Inhibition of copper-induced LDL oxidation (MDA, TBA method); assay type: biochemical; details: CuSO4 10 uM, 18 hr
# Method: Human LDL (sigma) was dissolved in distilled water at a concentration of 1 mg/ml. LDL was dialyzed against three changes of phosphate-buffered solution before oxidation to remove EDTA (ethylenediamine tetraacetate) at 4 °C for 18 hr. EDTA-free LDL (100 ug LDL protein/ml) was incubated in EDTA-free phosphate-buffered solution at 37 °C for 18 hr in the presence of CuSO4 (10 uM) under pretreatment with the test compounds or tochopherol of which final concentrations were 10^-9, 10^-7, and 10^-5 M. Blank was incubated without CuSO^., and vehicle was used as a solvent group. Oxidation was stopped at 4 °C by addition of EDTA (200 uM).
# Copper (Cu^+2) facilitates the oxidation of LDL to produce malondialdehyde (MDA), thus the lipid peroxidation was determined by MDA quantification same as the above example 5 (1). The MDA quantification was estimated by reacting samples with 2-thiobarbituric acid (TBA) and measuring the absorbance at 530 nm. 1,1,3,3-Tetramethoxy propane (Sigma) was used as a standard agent, and calculated the quantity of MDA as nmol of MDA equivalents per mg protein. The inhibitory effect of the test compounds against the lipid peroxidation was evaluated by calculating MDA reduction rate of the test compounds compared with that of the control group.
# A7r5 [5] = experiment: Inhibition of A7r5 mediated LDL oxidation (MDA); assay type: cell-based, rat; details: for % Inhibition LDL + H2O2 (10^-7M): A7r5 plus H2O2 (10^-7 M); for % Inhibition LDL: A7r5 alone, LDL 100 ug/ml, 24 hr
# Method: A7r5 (ATCC CRL-1444, smooth muscles, thoracic aorta, BDIX rat) cells were cultured in 24 well plates, using the medium of DMEM (Dulbecco's modified Eagle's Medium) supplemented with 10% heat-inactivated FBS (fetal bovine serum) and 1% antibiotics. Confluent A7r5 from plates were washed with phosphate-buffered solution, and DMEM with 10% FBS and 1% antibiotics was added in a total volume of 0.5 ml/well. Cells (2 x 10^5 cells/ml) were preincubated without and with either test compounds (10^-6 - 10^-4 M) or Tocopherol (10^-6 - 10^-4 M) at 37 °C for 30 min. Then, A7r5 alone or A7r5 plus H2O2 (10^-7 M) were exposed to LDL (100 ug/ml) for 24 hr.
# The inhibitory effect of the test compounds against the lipid peroxidation was evaluated by calculating MDA reduction rate of the test compounds compared with that of the control group same as the above example 5 (2).
# HUVEC = experiment: Inhibition of intracellular ROS induced by H2O2 (H2DCFDA) in HUVEC; assay type: cell-based, Human
# Method: as §1
# [6] = ORAC (oxygen-radical absorbance capacity) assay; assay type: biochemical; details: 1 ORAC unit = net protection by 1 uM Trolox
# Method: The method utilized β-PE (β-phycoerythrin) as an indicator protein, and AAPH (2,2'-azobis(2-amidinopropane) dihydrochloride) as a peroxy radical generator. Reaction mixtures consisted of test compounds (10^-6M and 10^-4M), β-PE (1.76 x 10^-8M), and AAPH (3 x 10^-3 M) in 75 mM phosphate buffer (pH 7.0). A final volume of 2 ml was used in 24 well plates. Test compounds were first dissolved in acetone and then added to the reaction mixture. Once AAPH was added, the reaction was initiated at 37 °C and the fluorescence (485 nm excitation, 590 nm emission) was measured every 5 min using Fluorescence reader (FL600, Biotek Instrument). The ORAC units were calculated based on the area under the fluorescence curve of β-PE in the presence of the test compound compared to the area generated by 1 uM Trolox. 1 ORAC unit represents the net protection provided by 1 uM Trolox.
compound,measurement,setting,value
COC(OC)[C@@]1(C)Oc2ccc(NC(C)=O)cc2[C@@H](NC(=NC#N)NCc2ccccc2)[C@@H]1O [Example 41],IC50,rat aorta,> 30 µM
same,"Anti-ischemic Activity (in vivo, rats) (0.3 mg/kg i.v.) IZ/AAR (%)",[1],30.25%
same,LD50,[2],> 1000 mg/kg
"CC(C)(Sc1cc(C(C)(C)C)c(O)c(C(C)(C)C)c1)Sc1cc(C(C)(C)C)c(O)c(C(C)(C)C)c1 [Probucol, reference compound]",inhibition at 10 µM,"A7r5 [3]; A7r5, Conc. 10^-5 M, read-out: Inhibition (%) H2O2 (10^-6M)",185%
same,inhibition at 1 µM,"A7r5 [3]; A7r5, Conc. 10^-6 M",184%
same,inhibition at 0.1 µM,"A7r5 [3]; A7r5, Conc. 10^-7 M, read-out: Inhibition (%) H2O2 (10^-6M)",72%
"Angiotensin II [AII, reference compound]",Clearance of ^99mTC (%),[4],44.71%
Tocopherol [reference compound],% Inhibition,Human LDL; 10^-5 M,29.7%
same,% Inhibition,"Human LDL; 10^-7 M, 0.1 µM",21.3%
same,% Inhibition,"Human LDL; 10^-9 M, 0.001 µM",18.5%
same,% Inhibition LDL + H2O2 (10^-7M),A7r5 [5]; 10^-4 M,63.9%
same,% Inhibition LDL,A7r5 [5]; 10^-5 M,57.0%
same,% Inhibition LDL + H2O2 (10^-7M),A7r5 [5]; 10^-5 M,53.0%
same,% Inhibition LDL,A7r5 [5]; 10^-6 M,41.1%
same,% Inhibition LDL + H2O2 (10^-7M),A7r5 [5]; 10^-6 M,43.2%
same,Inhibition (%) H2O2 (10^-5M),HUVEC; Conc. 10^-5 M,51.0%
same,Inhibition (%) H2O2 (10^-6M),HUVEC; Conc. 10^-5 M,60.8%
same,Inhibition (%) H2O2 (10^-5M),HUVEC; Conc. 10^-6 M,30.7%
same,Inhibition (%) H2O2 (10^-6M),HUVEC; Conc. 10^-6 M,43.2%
same,Inhibition (%) H2O2 (10^-5M),HUVEC; Conc. 10^-7 M,8.8%
same,Inhibition (%) H2O2 (10^-6M),HUVEC; Conc. 10^-7 M,13.8%
same,ORAC units,[6]; Conc. 10^-4 M,1.568 ORAC units
same,ORAC units,[6]; Conc. 10^-6 M,1.0 ORAC units
